Columns and labels:
[1] = tested on: Thielavia sp. laccase (Ecostone LCC10); assay: Bleaching of solubilized indigo, Thielavia sp. laccase with mediators (Example 2); assay type: biochemical; settings: laccase 10 ppm, pH 5, 50° C., 2 hours, n = 2
Description: An assay for the bleaching of the solubilized indigo substrate by laccase/mediator combinations was performed in a 96-well microtitre plate as follows
(§1) A saturated solution of indigo in N-methylpyrrolidone (NMP) was prepared by stirring indigo (30 mg) in NMP (10 ml) at room temperature for 5 hours. The NMP solution was diluted 10-fold into an aqueous buffer solution resulting in a blue solution. For example, dilution into 50 mM sodium acetate buffer at pH 5, or 50 mM sodium phosphate buffer at pH 7. Solutions were shaken well immediately before use.
(§2) The assay for the bleaching of the solubilized indigo substrate was performed in a 96-well microtitre plate whereby each well received the soluble indigo solution in 50 mM sodium acetate buffer at pH 5 (180 uL), laccase (10 ppm enzyme) and mediator solution (from a 20 mM stock solution in methanol). The total volume of each well was adjusted to 200 uL with deionzed water. A control containing laccase only was run in duplicate. The plate was sealed and incubated at 50° C. for 2 hours at 800 rpm on a heated agitator (Thermomixer, Eppendorf). Following this period, the plates were unsealed and a solution of ascorbic acid (20 uL of a 10% aqueous solution) added to each well in order to reduce the oxidized forms of the mediators. The extent of indigo bleaching was then assessed by determining the absorbance for each well at 600 nm using a microtitre plate reader. The lower the absorbance reading, the greater the extent of indigo bleaching.

[2] = tested on: Thielavia laccase (Ecostone LCC10); assay: Soluble indigo bleaching at two pH values, Thielavia laccase (Example 3); assay type: biochemical
Description: as §1, §2
Laccases derived from Myceliophtora (Denilite® II, Novozymes, Bagsvaerd, Denmark), Thielavia (Ecostone LCC10, AB enzymes, Darmstadt, Germany) and Cerrena sp. were assessed for their ability to bleach solubilized indigo in conjunction with low molecular weight mediators at two pH values.
Bleaching of solubilized indigo in 96-well microtitre plates was performed as described in Example 1, using 3 different laccases at pH values of 5 and 7.

## COc1cc(C(N)=O)cc(OC)c1O [SA, 4-carboxamido-2,6-dimethoxyphenol]
[1]; mediator 50 mM Concentration (head)
  ΔA600 (change in absorbance at 600 nm relative to control): 0.088
[1]; mediator 500 mM Concentration (head)
  ΔA600 (change in absorbance at 600 nm relative to control): 0.170
[2]; pH 5, mediator 250 uM
  ΔA600 Thielavia: 0.170
[2]; pH 7, mediator 250 uM
  ΔA600 Thielavia: 0.162
